Data taken from US9073853B2, “Cycloalkane carboxylic acid derivatives as CXCR3 receptor antagonists” (Sanofi, priority 2011, dated 2015).

The molecules below were run against human CXCR3-A receptor (Homo sapiens (Human), UniProt P49682) (assay: 125I-CXCL10 competition radioligand binding assay). Conditions: displacement of 125I-CXCL10 from membranes of CHO cells expressing human recombinant CXCR3-A.
Outline: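 Membranes from a recombinant cell line expressing human CXCR3-A (10-20 μg protein) were incubated with 125I-CXCL10 and test compound for 60 min at 25° C, then filtered onto PEI-soaked GF/B filters and gamma-counted. IC50 and Hill slope came from four-parameter nonlinear fitting of competition curves.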

human CXCR3-A receptor, sequence (P49682 whole entry): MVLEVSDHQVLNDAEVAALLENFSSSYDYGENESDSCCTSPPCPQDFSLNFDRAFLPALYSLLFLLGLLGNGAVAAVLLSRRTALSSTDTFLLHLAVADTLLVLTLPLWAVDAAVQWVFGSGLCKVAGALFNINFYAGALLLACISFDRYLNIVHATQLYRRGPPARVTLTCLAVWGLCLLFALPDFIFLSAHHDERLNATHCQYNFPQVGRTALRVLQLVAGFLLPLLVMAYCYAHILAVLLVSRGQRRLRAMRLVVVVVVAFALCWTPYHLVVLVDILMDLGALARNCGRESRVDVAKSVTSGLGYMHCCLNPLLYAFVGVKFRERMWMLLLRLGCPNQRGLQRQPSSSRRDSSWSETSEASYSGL

| IC50 | Compound |
| --- | --- |
| 77 nM | CCC(c1ccc(Cl)cc1)N(Cc1ccc(OCCN2C(=O)CN(C)C2=O)c(OC)c1)C[C@H]1CC[C@H](C(=O)O)CC1 (stereo partly drawn) [Example 67, trans-4-[([1-(4-Chloro-phenyl)-propyl]-{3-methoxy-4-[2-(3-methyl-2,5-dioxo-imidazolidin-1-yl)-ethoxy]-benzyl}-amino)-methyl]-cyclohexanecarboxylic acid] |
| 646 nM | CCOC(=O)[C@@H]1C[C@H]1CN(Cc1ccc(OCCN2C(=O)CCC2=O)c(OC)c1)C(C)c1ccc2c(c1)CCO2 (stereo partly drawn) [Example 111, (1R,2R)-2-[([1-(2,3-Dihydro-benzofuran-5-yl)-ethyl]-{4-[2-(2,5-dioxo-pyrrolidin-1-yl)-ethoxy]-3-methoxy-benzyl}-amino)-methyl]-cyclopropanecarboxylic acid ethyl ester] |
| 76 nM | COc1cc(CN(C[C@H]2CC[C@H](C(=O)O)CC2)[C@@H](C)c2ccc(Cl)cc2)ccc1OCCn1c(=O)ccn(C)c1=O [Example 37, trans-4-[([(S)-1-(4-Chloro-phenyl)-ethyl]-{3-methoxy-4-[2-(3-methyl-2,6-dioxo-3,6-dihydro-2H-pyrimidin-1-yl)-ethoxy]-benzyl}-amino)-methyl]-cyclohexanecarboxylic acid] |
| 154 nM | COc1cc(CN(C[C@@H]2CC[C@H](C(=O)O)C2)[C@@H](C)c2ccc(Cl)cc2)ccc1OCCN1C(=O)CCC1=O [Example 102, (1S,3R)-3-[([(S)-1-(4-Chloro-phenyl)-ethyl]-{4-[2-(2,5-dioxo-pyrrolidin-1-yl)-ethoxy]-3-methoxy-benzyl}-amino)-methyl]-cyclopentanecarboxylic acid] |
| 26 nM | COc1cc(CN(C[C@H]2CC[C@H](C(=O)O)CC2)[C@H]2CCc3c2ccc(Cl)c3F)ccc1OCCN1C(=O)CCC1=O [Example 148, trans-4-[(((S)-5-Chloro-4-fluoro-indan-1-yl)-{4-[2-(2,5-dioxo-pyrrolidin-1-yl)-ethoxy]-3-methoxy-benzyl}-amino)-methyl]-cyclohexanecarboxylic acid] |
| 1430 nM | COc1cc(CN(C[C@H]2CC[C@H](C(=O)O)CC2)C(C)c2ccc3c(c2)CCO3)ccc1/C=C/CN1C(=O)CCC1=O (stereo partly drawn) [Example 35, trans-4-[([1-(2,3-Dihydro-benzofuran-5-yl)-ethyl]-{4-[(E)-3-(2,5-dioxo-pyrrolidin-1-yl)-propenyl]-3-methoxy-benzyl}-amino)-methyl]-cyclohexanecarboxylic acid] |
| 1000 nM | COc1cc(CN(C[C@H]2CC[C@H](C(=O)O)CC2)C2CCc3cc(Cl)ccc32)ccc1CCCN1C(=O)CCC1=O (stereo in doubt) [Example 46, trans-4-[(((S)-5-Chloro-indan-1-yl)-{4-[3-(2,5-dioxo-pyrrolidin-1-yl)-propyl]-3-methoxy-benzyl}-amino)-methyl]-cyclohexanecarboxylic acid] |
| 180 nM | CCC(c1ccc(Cl)cc1)N(Cc1ccc(OCCN2C(=O)CN(C)C2=O)c(C)c1)C[C@H]1CC[C@H](C(=O)O)CC1 (stereo partly drawn) [Example 70, trans-4-[([1-(4-Chloro-phenyl)-propyl]-{3-methyl-4-[2-(3-methyl-2,5-dioxo-imidazolidin-1-yl)-ethoxy]-benzyl}-amino)-methyl]-cyclohexanecarboxylic acid] |
| 25 nM | COc1cc(CN(C[C@H]2CC[C@H](C(=O)O)CC2)C(C)c2ccc(Cl)c(C)c2)ccc1OCCN1C(=O)CCC1=O (stereo partly drawn) [Example 25, trans-4-[([1-(4-Chloro-3-methyl-phenyl)-ethyl]-{4-[2-(2,5-dioxo-pyrrolidin-1-yl)-ethoxy]-3-methoxy-benzyl}-amino)-methyl]-cyclohexanecarboxylic acid] |
| 99 nM | Cc1cc(CN(C[C@H]2CC[C@H](C(=O)O)CC2)[C@@H](C)c2ccc(Cl)cc2)ccc1OCCN1C(=O)CN(C)C1=O [Example 39, trans-4-[([(S)-1-(4-Chloro-phenyl)-ethyl]-{3-methyl-4-[2-(3-methyl-2,5-dioxo-imidazolidin-1-yl)-ethoxy]-benzyl}-amino)-methyl]-cyclohexanecarboxylic acid] |
